Data taken from patent publication US20260226493A1, “HERBICIDE RESISTANT PLANTS” (SYNGENTA CROP PROTECTION AG, priority 2023, published 2026).

Assays:
[1] = system: D4539 (Escherichia coli MTP BioA) containing tobacco plants; test: Visual herbicide damage score on transgenic tobacco D4539 (pBin TMV MTP EcBioA); format: in vivo; conditions: 600 gai/ha
Description: In order to determine if the overexpressed gene detailed in Example 3 confers resistance to BIO3-BIO1 inhibiting compounds when expressed in plants, GM tobacco lines were produced and tested with BIO3-BIO1 inhibiting compounds. Transgenic tobacco plants expressing the Escherichia coli BioA gene with (SEQ ID NO:203) and without a mitochondrial signal peptide (SEQ ID NO: 202).
Populations of transgenic tobacco comprising 20-30 transgenic events per plant transformation constructs were generated as described in Example 1. These lines were clonally propagated and 1 clone per event was sprayed with 600 g ai/ha compound L or A+0.2% Genapol X080 with a spray volume of 200 L/Ha (“g ai/ha” refers to grams of active compound per hectare).
[…] A score of 0 indicates no visible damage or stunting whereas a score of 100 indicates a complete death of the plant. 20 transgenic events (i.e. individual transgenic plants) from each GM tobacco line were transplanted to soil 1 week prior to spraying with BIO3-BIO1 inhibiting compounds. WT tobacco was included as a control.

[2] = molecular target: T1, Arabidopsis thaliana BioDA variant enzymes (Arabidopsis thaliana, UniProt B0F481, C388D); test: biochemical
T1 construct: with the predicted N-terminal mitochondrial transit peptide removed; 6xHis-tag (N); thrombin cleavage site (N); made in house; host or cells: E. coli BL21 (DE3) bioA
Description: (§1) These plasmids were then expressed in E. coli BL21 (DE3) bioA with 50 μg/mL kanamycin and 25 μg/mL chloramphenicol selection. Overnight cultures grown at 37° C. were used to inoculate 8×500 mL AIM in shake flasks at a ratio of 1:100. Cultures were grown at 37° C., 200 rpm for 3.5 hours and then overnight at 20° C. Cells were harvested by centrifugation for 30 minutes at 10 000 g. Cells were stored at −80° C. until extraction. 30 g of cell pellet from was thawed in 120 mL of IMAC buffer A (20 mM HEPES pH7.5, 25 mM imidazole, 500 mM sodium chloride, 0.15 mM pyridoxal phosphate, 0.5 mM TCEP, 1× complete Protease Inhibitor Tablet (Roche)). The resuspension was passed through a cell disrupter at 18 000 PSI and centrifuged at 50 000 g for 25 minutes at 4° C. The His-tagged BIO3-BIO1 protein was purified from the extract supernatant on an AKTA avant chromatography system (Cytiva) using a HisTrap FF column and eluted in IMAC buffer B ((20 mM HEPES pH7.5, 500 mM imidazole, 500 mM sodium chloride, 0.15 mM pyridoxal phosphate, 0.5 mM TCEP) followed by SEC using a HiLoad 26/60 Superdex200 column in SEC buffer (25 mM HEPES pH7.5, 150 mM sodium chloride, 0.15 mM pyridoxal phosphate, 0.5 mM TCEP). Protein concentration was measured and calculated using the absorbance at 280 nm. Extracts were diluted 1 in 4 and 10 uL was analysed by SDS PAGE.
(§2) To measure BIO3-BIO1 mutant enzyme activity in the presence of herbicide, herbicides were incubated with 20 μL of enzyme mix (100 mM EPPS pH 8.6, 0.1 mM pyridoxal phosphate, 0.1 mg/mL BSA, 50 nM BIO3-BIO1 enzyme) for 10 minutes at 20° C. in a well of a 96-well half-area black plate, followed by the addition of 20 μL of substrate mix (final concentration of 100 mM EPPS pH 8.6, 0.1 mM pyridoxal phosphate, 0.1 mg/mL BSA, 100 μM spermidine, 20 μM KAPA, 100 mM NaCO3) and further incubation for 75 minutes at 20° C. The reaction was terminated by the addition of 50 μL of derivatisation mix (final concentration of 250 mM borate NaOH pH 9.4, 3.6 mM o-phthalaldehyde, 7 mM β-mercaptoethanol, 17% (v/v) ethanol, 3.6% (v/v) methanol). The fluorescent product produced by the reaction of DAPA with o-phthalaldehyde and 7 mM β-mercaptoethanol was measured at 470 nm after excitation at 410 nm.
(§3) For IC50 calculations, appropriate dose responses of compounds L, M, B, K and G were used. Calculated percentage inhibitions were then input into GraphPad Prism 7 and IC50s calculated using the non-linear regression (vs. normalised response) equation.

[3] = molecular target: T2, Arabidopsis thaliana BioDA variant enzymes (Arabidopsis thaliana, UniProt B0F481); test: biochemical; conditions: WT Arabidopsis thaliana BioDA (SEQ ID NO 294); read-out: IC50
T2 construct: with the predicted N-terminal mitochondrial transit peptide removed; 6xHis-tag (N); thrombin cleavage site (N); made in house; host or cells: E. coli BL21 (DE3) bioA
Description: as §1, §2, §3

T1 sequence (B0F481 24-833 C388D): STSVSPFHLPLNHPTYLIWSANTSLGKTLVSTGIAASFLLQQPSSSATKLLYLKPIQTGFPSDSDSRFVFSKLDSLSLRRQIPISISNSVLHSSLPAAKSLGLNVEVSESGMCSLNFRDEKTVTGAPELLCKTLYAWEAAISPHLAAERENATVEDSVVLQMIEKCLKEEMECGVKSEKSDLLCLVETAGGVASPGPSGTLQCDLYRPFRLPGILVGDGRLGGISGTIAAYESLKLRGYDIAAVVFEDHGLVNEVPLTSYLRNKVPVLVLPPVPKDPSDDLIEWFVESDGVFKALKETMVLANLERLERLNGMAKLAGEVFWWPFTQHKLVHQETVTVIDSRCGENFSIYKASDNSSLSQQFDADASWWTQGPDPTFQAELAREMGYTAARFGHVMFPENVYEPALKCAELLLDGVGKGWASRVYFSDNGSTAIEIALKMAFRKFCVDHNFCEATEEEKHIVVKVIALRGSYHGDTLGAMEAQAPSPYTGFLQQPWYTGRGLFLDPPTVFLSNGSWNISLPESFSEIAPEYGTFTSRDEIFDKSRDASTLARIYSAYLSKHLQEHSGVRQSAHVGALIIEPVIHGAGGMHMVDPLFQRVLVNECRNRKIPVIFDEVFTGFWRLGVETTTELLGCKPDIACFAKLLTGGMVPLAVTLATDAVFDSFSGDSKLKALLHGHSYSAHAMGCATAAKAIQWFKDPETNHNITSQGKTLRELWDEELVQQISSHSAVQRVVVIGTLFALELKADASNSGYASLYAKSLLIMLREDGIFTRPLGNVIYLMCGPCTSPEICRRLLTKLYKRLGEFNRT

CCn1c(Cn2ccc(C(F)(F)F)n2)cc(=O)c(C(=O)O)c1-c1ccc(Cl)c(Cl)c1 [Compound L, 2-(3,4-dichlorophenyl)-1-ethyl-4-oxo-6-[[3-(trifluoromethyl)pyrazol-1-yl]methyl]pyridine-3-carboxylic acid]
percentage of damage (herbicide damage score) ([1]; D4539 event 8385, 7 DAT): 10%
percentage of damage (herbicide damage score) ([1]; D4539 event 8385, 14 DAT): 0%
percentage of damage (herbicide damage score) ([1]; D4539 event 8385, 21 DAT): 0%
percentage of damage (herbicide damage score) ([1]; D4539 event 8386, 7 DAT): 7%
percentage of damage (herbicide damage score) ([1]; D4539 event 8386, 14 DAT): 0%
percentage of damage (herbicide damage score) ([1]; D4539 event 8386, 21 DAT): 0%
percentage of damage (herbicide damage score) ([1]; D4539 event 8399, 7 DAT): 2%
percentage of damage (herbicide damage score) ([1]; D4539 event 8399, 14 DAT): 0%
percentage of damage (herbicide damage score) ([1]; D4539 event 8399, 21 DAT): 0%
percentage of damage (herbicide damage score) ([1]; D4539 event 8402, 7 DAT): 3%
percentage of damage (herbicide damage score) ([1]; D4539 event 8402, 14 DAT): 0%
percentage of damage (herbicide damage score) ([1]; D4539 event 8402, 21 DAT): 0%
percentage of damage (herbicide damage score) ([1]; D4539 event 8414, 7 DAT): 2%
percentage of damage (herbicide damage score) ([1]; D4539 event 8414, 14 DAT): 0%
percentage of damage (herbicide damage score) ([1]; D4539 event 8414, 21 DAT): 0%
percentage of damage (herbicide damage score) ([1]; D4539 event 8415, 7 DAT): 7%
percentage of damage (herbicide damage score) ([1]; D4539 event 8415, 14 DAT): 0%
percentage of damage (herbicide damage score) ([1]; D4539 event 8415, 21 DAT): 0%
percentage of damage (herbicide damage score) ([1]; D4539 event 8417, 7 DAT): 2%
percentage of damage (herbicide damage score) ([1]; D4539 event 8417, 14 DAT): 0%
percentage of damage (herbicide damage score) ([1]; D4539 event 8417, 21 DAT): 20%
percentage of damage (herbicide damage score) ([1]; D4539 event 8418, 7 DAT): 10%
percentage of damage (herbicide damage score) ([1]; D4539 event 8418, 14 DAT): 25%
percentage of damage (herbicide damage score) ([1]; D4539 event 8418, 21 DAT): 60%
percentage of damage (herbicide damage score) ([1]; D4539 event 8423, 7 DAT): 2%
percentage of damage (herbicide damage score) ([1]; D4539 event 8423, 14 DAT): 0%
percentage of damage (herbicide damage score) ([1]; D4539 event 8423, 21 DAT): 0%
percentage of damage (herbicide damage score) ([1]; D4539 event 8424, 7 DAT): 65%
percentage of damage (herbicide damage score) ([1]; D4539 event 8424, 14 DAT): 85%
percentage of damage (herbicide damage score) ([1]; D4539 event 8424, 21 DAT): 90%
percentage of damage (herbicide damage score) ([1]; D4539 event 8426, 7 DAT): 2%
percentage of damage (herbicide damage score) ([1]; D4539 event 8426, 14 DAT): 0%
percentage of damage (herbicide damage score) ([1]; D4539 event 8426, 21 DAT): 0%
percentage of damage (herbicide damage score) ([1]; D4539 event 8433, 7 DAT): 5%
percentage of damage (herbicide damage score) ([1]; D4539 event 8433, 14 DAT): 0%
percentage of damage (herbicide damage score) ([1]; D4539 event 8433, 21 DAT): 0%
percentage of damage (herbicide damage score) ([1]; D4539 event 8434, 7 DAT): 2%
percentage of damage (herbicide damage score) ([1]; D4539 event 8434, 14 DAT): 0%
percentage of damage (herbicide damage score) ([1]; D4539 event 8434, 21 DAT): 35%
percentage of damage (herbicide damage score) ([1]; D4539 event 8438, 7 DAT): 15%
percentage of damage (herbicide damage score) ([1]; D4539 event 8438, 14 DAT): 85%
percentage of damage (herbicide damage score) ([1]; D4539 event 8438, 21 DAT): 95%
percentage of damage (herbicide damage score) ([1]; D4539 event 8439, 7 DAT): 2%
percentage of damage (herbicide damage score) ([1]; D4539 event 8439, 14 DAT): 0%
percentage of damage (herbicide damage score) ([1]; D4539 event 8439, 21 DAT): 0%
percentage of damage (herbicide damage score) ([1]; D4539 event 8447, 7 DAT): 2%
percentage of damage (herbicide damage score) ([1]; D4539 event 8447, 14 DAT): 0%
percentage of damage (herbicide damage score) ([1]; D4539 event 8447, 21 DAT): 0%
percentage of damage (herbicide damage score) ([1]; D4539 event 8448, 7 DAT): 2%
percentage of damage (herbicide damage score) ([1]; D4539 event 8448, 14 DAT): 0%
percentage of damage (herbicide damage score) ([1]; D4539 event 8448, 21 DAT): 0%
percentage of damage (herbicide damage score) ([1]; D4539 event 8460, 7 DAT): 2%
percentage of damage (herbicide damage score) ([1]; D4539 event 8460, 14 DAT): 0%
percentage of damage (herbicide damage score) ([1]; D4539 event 8460, 21 DAT): 0%
percentage of damage (herbicide damage score) ([1]; D4539 event 8461, 7 DAT): 17%
percentage of damage (herbicide damage score) ([1]; D4539 event 8461, 14 DAT): 75%
percentage of damage (herbicide damage score) ([1]; D4539 event 8461, 21 DAT): 90%
percentage of damage (herbicide damage score) ([1]; D4539 event 8462, 7 DAT): 2%
percentage of damage (herbicide damage score) ([1]; D4539 event 8462, 14 DAT): 0%
percentage of damage (herbicide damage score) ([1]; D4539 event 8462, 21 DAT): 3%
IC50 [2]: 100 µM
IC50 [3]: 0.145 µM
